Measured values from patent US8551445B2, “Preparation and use of alkylating agents” (The Queen's Medical Center, priority 2003, dated 2013).

Legend:
[1] = FDA approved pre-clinical IND safety trial in humans; format: in vivo; conditions: after about fifty trials
[2] = Culture of final purified solutions for microorganism growth (sterility); conditions: 1 mL of final purified solution in physiologic saline; enriched thioglycollate at 37° C. and trypticase soy broth at 23° C.; 2 weeks
Experimental: The final purified solutions in physiologic saline [^18F]FCH and [^18F]FECh were cultured (1 mL) for microorganisms for growth in enriched thioglycollate at 37° C. and trypticase soy broth media at 23° C. […] A positive control standard is always included in the assay. [^18F]FCH is currently in an FDA approved pre-clinical IND safety trial in humans.

[3] = LAL pyrogen test (Charles River Labs Endosafe); conditions: final purified solutions in physiologic saline

C[N+](C)(C[18F])CCO [[^18F]FCH, [^18F]N,N-Dimethyl-N-fluoromethylethanolamine]
adverse effects [1]: no adverse effects
growth of microorganisms in culture [2]: No growth
pyrogens (LAL) [3]: pyrogen free

C[N+](C)(CCO)CC[18F] [[^18F]FECh, [^18F]N,N-Dimethyl-N-fluoroethylethanolamine]
growth of microorganisms in culture [2]: No growth
pyrogens (LAL) [3]: pyrogen free
